Data set [1] has as its target B. licheniformis strain B6 glyphosate-N-acetyltransferase (GAT), native, B6, SEQ ID NO:7 (Bacillus licheniformis, UniProt Q65LG7). As to the kind of experiment: Apparent KM for Acetyl CoA and kcat of purified GAT, mass spectrometric detection of N-acetyl glyphosate. Type of data set: biochemical.
The target of data set [2] is non-native GAT polypeptide 25-8H7 (SEQ ID NO:907), glyphosate-N-acetyltransferase (Bacillus licheniformis, UniProt Q65LG7). As to the kind of experiment: GAT activity with respect to glyphosate, aspartate and serine (Table 21), DTNB read-out. Type of data set: biochemical. As to conditions: AcCoA as acetyl donor, 25 mM Hepes, pH 6.8, 10% ethylene glycol. How it is done:
(§1) GAT activity of several GAT polypeptides of the disclosure was evaluated with respect to a number of amino acid substrates. The GAT polypeptide, AcCoA and amino substrate were incubated in 25 mM Hepes, pH 6.8, 10% ethylene glycol in the wells of a 96-well polystyrene plate. After 30 minutes, the reactions were stopped by the addition of 30 µl of 10 mM 5, 5'-dithiobis-2-nitrobenzoate (DTNB) in 500 mM Tris, pH 7.5. After 2 minutes, absorbance was read at 412 nm in a Spectramax Plus plate reader (Molecular Devices, Sunnyvale, CA).
(§2) Activity with the other protein amino acids was either undetected or less than 3% that of GAT activity towards glyphosate as the substrate. […] The percentages refer to percent activity relative to activity of the GAT polypeptide towards the substrate, glyphosate. Some of the data is shown below in Table 21. Table 21: GAT activity with respect to Glyphosate, Aspartate and Serine

Data set [3] addresses native GAT polypeptide 401 (SEQ ID NO:6), glyphosate-N-acetyltransferase (Bacillus licheniformis, UniProt Q65LG7). The description is as above. Type of data set: biochemical. As to conditions: AcCoA as acetyl donor, 25 mM Hepes, pH 6.8, 10% ethylene glycol. How it is done:
as §1, §2

Data set [4] has as its target non-native GAT polypeptide 17-15H3 (SEQ ID NO:601), glyphosate-N-acetyltransferase (Bacillus licheniformis, UniProt Q65LG7). The description is as above. Type of data set: biochemical. As to conditions: AcCoA as acetyl donor, 25 mM Hepes, pH 6.8, 10% ethylene glycol. How it is done: as §1, §2
Data set [5] deals with GAT20-30C6 (SEQ ID NO:683) variant 20-30C6 H138S (Bacillus licheniformis, UniProt Q65LG7, form not given/H138S). As to the kind of experiment: GAT kinetics of active-site mutants, 0 KCl, Bradford protein assay (Table 12). Type of data set: biochemical. How it is done: (§3) KM was calculated from the initial reaction rates obtained from concentrations of glyphosate ranging from 0.125 to 10 mM, using the Lineweaver-Burke transformation of the Michaelis-Menten equation. kcat/KM was determined by dividing the value determined for kcat by the value determined for KM.
(§4) The amino acids aspartic acid (Asp, D), histidine (His, H) and cysteine (Cys, C) are known to be associated with the active sites of various acetyltransferase enzymes. To determine if any such residues play a role in GAT activity, all D, C, and H residues of GAT20-30C6 (SEQ ID NO:683) were individually mutated to alanine (Ala, A) and the mutated enzymes assayed for N-acetylglyphosate activity. […]

Data set [6] concerns the target GAT20-30C6 (SEQ ID NO:683) variant 20-30C6 H41A (Bacillus licheniformis, UniProt Q65LG7, form not given/H41A). The data set is described as above. Type of data set: biochemical. How it is done: as §3, §4
The test system of data set [7] is GAT20-30C6 (SEQ ID NO:683) variant 20-30C6 H138A. The description is as above. Type of data set: biochemical. How it is done: as §3, §4
Data set [8] deals with GAT20-30C6 (SEQ ID NO:683), evolved glyphosate-N-acetyltransferase, unmodified (Bacillus licheniformis, UniProt Q65LG7). Described as above. Type of data set: biochemical. How it is done:
as §3, §4

For data set [9], the target named is GAT20-30C6 (SEQ ID NO:683) variant 20-30C6 H138R (Bacillus licheniformis, UniProt Q65LG7, form not given/H138R). The description is as above. Type of data set: biochemical. How it is done: as §3, §4
The test system of data set [10] is O=C(O)CNCP(=O)(O)O. The experiment in a line: Apparent KM for glyphosate of purified GAT, continuous spectrophotometric assay at 235 nm. Type of data set: biochemical, B. licheniformis. As to conditions: other: saturating (200 µM) Acetyl CoA, 1 µM purified GAT, 5 mM morpholine pH 7.7, 20 % ethylene glycol, 37.0 °C. The source says:
Genomic DNA from B. licheniformis strain B6 was purified, partially digested with Sau3A1 and fragments of 1-10 Kb were cloned into an E. coli expression vector. A clone with a 2.5 kb insert conferred the glyphosate-N-acetyltransferase (GAT) activity on the E. coli host as determined with mass spectrometry analysis. […] Subsequent cloning of this open reading frame confirmed that it encoded the GAT enzyme. The gene encoding the GAT enzyme of B6 was transformed into E. coli strain XL1 Blue. A 10% innoculum of a saturated culture was added to Luria broth, and the culture was incubated at 37° C for 1 hr. Expression of GAT was induced by the addition of IPTG at a concentration of 1 mM. The culture was incubated a further 4 hrs, following which, cells were harvested by centrifugation and the cell pellet stored at -80°C.
Lysis of the cells was effected by the addition of 1 ml of the following buffer to 0.2 g of cells: 25 mM HEPES, pH 7.3, 100 mM KCl and 10% methanol (HKM) plus 0.1 mM EDTA, 1 mM DTT, 1 mg/ml chicken egg lysozyme, and a protease inhibitor cocktail obtained from Sigma and used according to the manufacturers recommendations. After 20 minutes incubation at room temperature (e.g., 22-25°C), lysis was completed with brief sonication. The lysate was centrifuged and the supernatant was desalted by passage through Sephadex G25 equilibrated with HKM. […]

Data set [11] relates to CC(=O)SCCNC(=O)CCNC(=O)[C@H](O)C(C)(C)COP(=O)(O)OP(=O)(O)OC[C@H]1O[C@@H](n2cnc3c(N)ncnc32)[C@H](O)[C@@H]1OP(=O)(O)O. The experiment in a line: purified protein, by the assay type. To be noted: other: 5 mM glyphosate, 0.19 µM GAT, 5 mM morpholine pH 7.7, 50% methanol.

As a reminder, the Km is the substrate concentration at which the rate is half of its maximum. As for `CC(=O)SCCNC(=O)CCNC(=O)[C@H](O)C(C)(C)COP(=O)(O)OP(=O)(O)OC[C@H]1O[C@@H](n2cnc3c(N)ncnc32)[C@H](O)[C@@H]1OP(=O)(O)O` [Acetyl CoA], the Km in data set [1] (read-out: apparent KM for Acetyl CoA, 5 mM glyphosate, 0.19 µM GAT, 5 mM morpholine pH 7.7, 50% methanol) is around 2 µM.
With `N[C@@H](CO)C(=O)O` [Serine, L-serine], the “kcat±SE” value is 6.47 ± 0.308 s⁻¹ in data set [2], 14.2 s⁻¹ in data set [3] and 242 + 15.8 min^-1 in data set [4].
For orientation: kcat means the maximal rate divided by the concentration of active sites. As for `O=C(O)CNCP(=O)(O)O` [glyphosate, N-phosphonomethylglycine], the kcat was 0.1 s⁻¹ in data set [1] (calculated from Vmax at a known concentration of enzyme, acetylation of glyphosate by Acetyl CoA); 0.0892 s⁻¹ in [5]; 3.47 s⁻¹ in [6]; below 0.00033 s⁻¹ in data set [7]; 6.43 s⁻¹ in [8]; 0.738 s⁻¹ in data set [9]. The “kcat±SE” value in data set [2] is 24.67 ± 1.09 s⁻¹; in data set [3], 0.0892 ± 0.000717 s⁻¹; in [4] it was 1150 ± 27.6 min⁻¹.
On to “B. licheniformis strain B6 glyphosate-N-acetyltransferase (GAT), native, B6, SEQ ID NO:7 (Bacillus licheniformis DSM 13 = ATCC 14580)”, for which, in data set [10], the Km came to 2900 ± 200 µM and the kcat came out at 0.1 s⁻¹. In addition, the Michaelis constant (Km) in [11] is listed as 2 µM.

Source of the values: EP2535414B1 (priority 2003, dated 2005).
